The text below walks through data of patent publication US10130651B2, “RNAi Therapy for Hepatitis B Virus Infection” (Arrowhead Pharmaceuticals, Inc., priority 2015, dated 2018).

What all share (assay type): in vivo, NOD-SCID mice (pHBV model)
Data set [1] relates to Hepatitis B surface antigen (HBsAg), Hepatitis B Virus. The data set is described as follows: Serum HBsAg (ELISA) in pHBV model mice after IV MLP delivery peptide+HBV RNAi triggers (Example 7). The conditions noted are these: 8 mg/kg MLP delivery peptide without HBV RNAi triggers. The text has this:
(§1) At day −42, 6 to 8 week old female NOD.CB17-Prkdscid/NcrCrl (NOD-SCID) mice were transiently transfected in vivo with MC-HBV1.3 by hydrodynamic tail vein injection (Yang P L et al. “Hydrodynamic injection of viral DNA: a mouse model of acute hepatitis B virus infection.” PNAS USA 2002 Vol. 99: p. 13825-13830). MC-HBV1.3 is a plasmid-derived minicircle that contains the same terminally redundant human hepatitis B virus sequence HBV1.3 as in the HBV1.3.32 transgenic mice (GenBank accession #V01460) (Guidotti L G et al. “High-level hepatitis B virus replication in transgenic mice. J Virol 1995 Vol. 69, p 6158-6169.). […] At day −21, three weeks post transfection, Hepatitis B surface antigen (HBsAg) HBsAg expression levels in serum were measured by ELISA and the mice were grouped according to average HBsAg expression levels. […]
(§2) At various times, before and after administration of MLP delivery peptide+HBV RNAi triggers, isotonic glucose, or MLP delivery peptide alone, serum HBsAg, serum HBV DNA, or liver HBV RNA were measured. […]
Serum was collected and diluted 10 to 2000-fold in PBS containing 5% nonfat dry milk. […] HBsAg levels were determined with a GS HBsAg EIA 3.0 kit (Bio-Rad Laboratories, Inc., Redmond, Wash.) as described by the manufacturer. […]
A general note: An ELISA detects its analyte on a solid surface through an enzyme-linked reagent.

Data set [2] relates to HBV DNA, Hepatitis B Virus. The data set is described as follows: Serum HBV DNA (qPCR) in pHBV model mice (Example 7). The following applies: 8 mg/kg MLP delivery peptide without HBV RNAi triggers.
Excerpt: as §1, §2
The number of copies of HBV genomes in DNA isolated from the pHBV mouse model serum was determined by qPCR. […]
qPCR assays were performed on a 7500 Fast or StepOne Plus Real-Time PCR system (Life Technologies). […] Quantitations of HBV DNA and recovery control plasmid were determined by qPCR reactions performed in triplicate. […]
In general terms: Quantitative PCR measures a nucleic acid by following its amplification.

Data set [3] is described as follows: Clinical chemistry (liver and renal function) in pHBV model mice. The conditions noted are these: day 2 (24 hours post-injection) vs day −1. How it is done:
Clinical chemistry markers in mouse serum were measured using a COBAS Integra 400 (Roche Diagnostics, Indianapolis, Ind.) chemical analyzer according to the manufacturer's instructions.
Liver and renal functions were evaluated on day −1 (pre-injection) and day 2 (24 hours post-injection).

Data set [4] has as its system HBsAg, Hepatitis B Virus. The data set can be described thus: Serum HBsAg in pHBV mice after MLP delivery peptide plus AD01385 and/or AD01386 (Example 10, Tables 17, 18). The following applies: 3 mg/kg MLP delivery peptide plus […] of each RNAi trigger; for Mean HBsAg in serum: single IV. The method, then:
At day −28, 6 to 8 week old female NOD.CB17-Prkdscid/NcrCrl (NOD-SCID) mice were transiently transfected in vivo with MC-HBV 1.3 by hydrodynamic tail vein injection as described.
CDM-NAG was added to MLP, SEQ ID NO: 650 (GIL MLP, L-form), in a 250 mM HEPES-buffered aqueous solution at a 5:1 (w/w) ratio at room temperature and incubated for 30 min to yield MLP delivery peptide. The reaction mixture was adjusted to pH 9.0 with 4 M NaOH. The extent of the reaction was assayed using 2,4,6-trinitrobenzene-sulfonic acid and determined to be >95%. MLP delivery peptide was purified by tangential flow in 10 mM bicarbonate buffer, pH 9.0, to which 10% dextran (w/w) was added. The final purified material was lyophilized.
5 mg lyophilized MLP delivery peptide was resuspended with 1 mL water. MLP delivery peptide was then combined with HBV RNAi triggers (AD01385 or AD01386) at the various dose levels.
At Day 1, each mouse was given a single IV administration via tail vein of 200 μl per 20 gram body weight of saline containing MLP delivery peptide+HBV RNAi triggers.
At various time points, before and after administration of MLP delivery peptide+HBV RNAi triggers, serum HBsAg and serum HBV DNA were measured. The HBsAg level in serum for each animal at a time point was divided by the pre-treatment level in that animal in order to determine the ratio of HBsAg in serum “normalized to pre-treatment”. The HBV DNA level in serum for each group at a time point was also divided by the pre-treatment level in that group in order to determine the ratio of HBV DNA in serum “normalized to pre-treatment”. In order to account for non-treatment related decline in expression of MC-HBV 1.3 or pHBV 1.3.—the “normalized to pre-treatment” ratio for an individual animal at a time point was then divided by the average “normalized to pre-treatment” ratio of all mice in the saline control group at the same time point to obtain the ratio of HBsAg, or HBV DNA, in serum “normalized to pre-treatment and control”.
Mice were anesthetized with 2-3% isoflurane and blood samples were collected from the submandibular area into serum separation tubes (Sarstedt AG & Co., Nümbrecht, Germany). Blood was allowed to coagulate at ambient temperature for 20 min. The tubes were centrifuged at 8,000×g for 3 min to separate the serum and stored at 4° C.
Serum Hepatitis B surface antigen (HBsAg) and Serum HBV DNA levels were measured as described.

The subject of data set [5] is HBV DNA, Hepatitis B Virus. The data set is described as follows: Serum HBV DNA in pHBV mice after MLP delivery peptide plus AD01385 and/or AD01386 (Example 10, Tables 19, 20). The following applies: 3 mg/kg MLP delivery peptide plus […] of each RNAi trigger; for Mean HBV DNA in serum: single IV.
Data set [6] has as its system HBsAg, Hepatitis B Virus. The data set can be described thus: Serum HBsAg in pHBV mice after MLP delivery peptide plus AD01385 and/or AD01386 (Example 10, Tables 17, 18). The conditions noted are these: 3 mg/kg MLP delivery peptide plus […] of each RNAi trigger; for Mean HBsAg in serum: single IV. The source holds these as a separate data set.

Ends that are not written are not given here.

For the substance “MLP delivery peptide: MLP SEQ ID NO: 650 (GIL MLP, L-form) reversibly masked with CDM-NAG (LIGAILKVLATGLPTLISWIKNKRKQ; also: reversibly masked with CDM-NAG)”, the “HBsAg levels in serum” value in data set [1] was “comparable to levels in mice that received a single injection of isotonic glucose”. Also, the “HBV DNA levels in serum” value in data set [2] was “comparable to levels in mice that received a single injection of isotonic glucose”. Also, the evidence of toxicity result in data set [3] is given as “nor was there any evidence of toxicity”.
“AD01386: duplex AM02312-AS/AM02320-SS (C6) (antisense TACCAAUUUAUGCCUACAGTT; sense UAUCUGUAGGCAUAAAUUGGUAT; siRNA; C6, chemistry not fully specified)”: the “Mean HBsAg in serum” value worked out at 125 ± 98 ng/mL in the data set on HBsAg, Hepatitis B Virus [4] (day 5); 738 ± 670 ng/mL with HBsAg, Hepatitis B Virus [4] (day 22); 2252 ± 1565 ng/mL in the data set with HBsAg, Hepatitis B Virus [4] (day 36); 109 ± 120 ng/mL in the data set with HBsAg, Hepatitis B Virus [6] (day 8); 273 ± 321 ng/mL with HBsAg, Hepatitis B Virus [6] (day 15); 1627 ± 1487 ng/mL with HBsAg, Hepatitis B Virus [6] (day 29). Further, in the data set on HBsAg, Hepatitis B Virus [6] (day −2 (pre-dose)), the “Mean HBsAg in serum” value came to 6219 ± 5606 ng/mL. Besides, the “HBsAg in serum (mean ± SD) (normalized to pre-dose and saline control group)” value with HBsAg, Hepatitis B Virus [4] (day 5) stood at 0.021 ± 0.007; with HBsAg, Hepatitis B Virus [4] (day 8), 0.016 ± 0.008; in the data set on HBsAg, Hepatitis B Virus [4] (day 15), 0.078 ± 0.027; in the data set with HBsAg, Hepatitis B Virus [4] (day 22), 0.237 ± 0.041; with HBsAg, Hepatitis B Virus [4] (day 29), 0.526 ± 0.045; in the data set on HBsAg, Hepatitis B Virus [6] (day 36), 0.808 ± 0.151. The “HBsAg in serum (mean ± SD) (normalized to pre-dose and saline control group)” value in the data set on HBsAg, Hepatitis B Virus [6] (day −2 (pre-dose)) is recorded as 1.000 ± 0.000. Also, the “Mean HBV DNA in serum” value in data set [5] (day 5) was 4.42 × 10^6 copies/mL; in data set [5] (day 8), 2.37 × 10^6 copies/mL; in data set [5] (day 15), 1.04 × 10^8 copies/mL; in data set [5] (day 22), 4.94 × 10^7 copies/mL; in data set [5] (day 29) it was 1.04 × 10^8 copies/mL; in data set [5] (day 36) it was 9.53 × 10^7 copies/mL. The “Mean HBV DNA in serum” value in data set [5] (day −2 (pre-dose)) is 2.24 × 10^8 copies/mL. Also, the “Mean HBV DNA in serum (normalized to pre-dose and saline control group)” value in data set [5] (day 5) is 0.020 ± 0.002; in data set [5] (day 8), 0.011 ± 0.002; in data set [5] (day 15) it was 0.153 ± 0.004; in data set [5] (day 22) it was 0.303 ± 0.048; in data set [5] (day 29), 0.710 ± 0.080; in data set [5] (day 36), 0.728 ± 0.022. For the same substance, the “Mean HBV DNA in serum (normalized to pre-dose and saline control group)” value in data set [5] (day −2 (pre-dose)) turned out to be 1.000 ± 0.000.
